Where two headings read alike, the source gives them in different places.
Experiments:
VvelCSP1 = VvelCSP1 (Vespa velutina auraria, UniProt A0A384ZVP9); assay: Fluorescence competitive binding assay (1-NPN probe) with VvelCSP1; conditions: for Ki: VvelCSP1
Experimental: (§1) Fluorescence competitive binding assays were employed to characterize the interactions between VvelCSPs and 13 volatiles shared between the elaiosomes of S. tuberosa and the cuticular hydrocarbons of honeybees. These tests were performed in 1 cm path length quartz cuvettes with an excitation wavelength of 337 nm and emission wavelength scanning from 400–450 nm. The volatiles and the fluorescent probe 1-NPN (1-N-phenylnaphthylamine), listed in Supplementary Table S2, were dissolved in methanol to prepare 100 mM stock solutions, which were then diluted to 1 mM working solutions [25]. To remove any potential endogenous ligands, the purified proteins were delipidated by three washes with an equal volume of dichloromethane (1:1 v/v). Each wash involved a 10-min incubation, and the process was followed by evaporation of the residual solvent under a gentle stream of nitrogen. Purified CSPs were resuspended in 20 mM Tris-HCl buffer (pH 7.5) to a final concentration of 2 μM. Binding parameters for CSP-NPN were determined by titration: 2 mL of CSP solution (2 μM) was titrated with 1-NPN (final concentrations: 2−24 μM). Maximum fluorescence intensity was recorded, and the dissociation constant was calculated. […] After incubation in the dark for 2 min, fluorescence quenching was measured. Half-maximal inhibitory concentration (IC50) values for volatiles were calculated from the competition curves, and their binding constants (Ki) were subsequently derived. The presented data, including IC50 and Ki values, originate from a single experiment under uniform conditions to ensure comparability (Supplementary Table S3).

VvelCSP4 = assay: Fluorescence competitive binding assay (1-NPN probe) with VvelCSP4; parameters: species or system Vespa velutina auraria
Experimental: as §1

[1] = VvelCSP4 2 μM, 1-NPN 1 μM, Tris-HCl pH 7.5, single experiment, read-out: IC50 (ligand concentration displacing 50% of the fluorescence intensity of the CSPs/NPN complex)
[2] = VvelCSP4, derived from IC50, read-out: Ki (dissociation constant)
[3] = VvelCSP4, read-out: IC50 (μM), no binding symbol
[4] = VvelCSP4, read-out: Ki (μM), no binding symbol

Sequence of VvelCSP1 (A0A384ZVP9 entry or part of it): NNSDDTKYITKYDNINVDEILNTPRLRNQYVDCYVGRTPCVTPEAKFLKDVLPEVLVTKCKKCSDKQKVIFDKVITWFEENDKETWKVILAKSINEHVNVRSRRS

SMILES | Raw fluorescence intensity (VvelCSP1; VvelCSP1, chemical 0.5 μM) | Raw fluorescence intensity (VvelCSP1; VvelCSP1, chemical 1 μM) | Raw fluorescence intensity (VvelCSP1; VvelCSP1, chemical 2 μM) | Raw fluorescence intensity (VvelCSP1; VvelCSP1, chemical 4 μM) | Raw fluorescence intensity (VvelCSP1; VvelCSP1, chemical 6 μM) | Raw fluorescence intensity (VvelCSP1; VvelCSP1, chemical 8 μM) | Raw fluorescence intensity (VvelCSP1; VvelCSP1, chemical 12 μM) | Raw fluorescence intensity (VvelCSP1; VvelCSP1, chemical 16 μM) | IC50 (VvelCSP4; [1]) [µM] | Raw fluorescence intensity (VvelCSP4; VvelCSP4, chemical 0.5 μM) | Raw fluorescence intensity (VvelCSP4; VvelCSP4, chemical 1 μM) | Raw fluorescence intensity (VvelCSP4; VvelCSP4, chemical 2 μM) | Raw fluorescence intensity (VvelCSP4; VvelCSP4, chemical 4 μM) | Raw fluorescence intensity (VvelCSP4; VvelCSP4, chemical 6 μM) | Raw fluorescence intensity (VvelCSP4; VvelCSP4, chemical 8 μM) | Raw fluorescence intensity (VvelCSP4; VvelCSP4, chemical 12 μM) | Raw fluorescence intensity (VvelCSP4; VvelCSP4, chemical 16 μM) | Ki (VvelCSP4; [2]) [µM] | IC50 (VvelCSP4; [3]) [µM] | Ki (VvelCSP4; [4]) [µM] | further results
CCCCCCCCCCCCCCCCCCCCCCCCCCC [Heptacosane] | 222.51 | 205.55 | 159.00 | 136.99 | 130.11 | 123.81 | 117.37 | 115.92 | 6.2 | 218.17 | 194.71 | 172.10 | 154.91 | 140.68 | 130.60 | 128.65 | 125.52 | 4.6 |  |  | 
CCCCCCCCCCCCCCCCCCCCCCCCCC [Hexacosane] | 189.29 | 171.76 | 135.79 | 114.55 | 103.35 | 99.94 | 93.92 | 89.96 |  | 213.35 | 194.71 | 177.42 | 169.19 | 147.61 | 141.30 | 136.25 | 133.13 |  | > 24 | > 18 | 
CCCCCCCCCCCCCCCCCCC [Nanadecane] | 223.11 | 209.38 | 178.27 | 171.35 | 158.50 | 148.00 | 140.37 | 133.91 | 10.4 | 238.31 | 207.32 | 185.38 | 167.28 | 153.91 | 144.81 | 135.70 | 129.34 | 7.89 |  |  | IC50 (VvelCSP1; VvelCSP1 2 μM, 1-NPN 1 μM, Tris-HCl pH 7.5, single experiment, read-out: IC50 (ligand concentration displacing 50% of the fluorescence intensity of the CSPs/NPN complex)): 18.2 µM; Ki (VvelCSP1; derived from IC50, read-out: Ki (dissociation constant)): 14.5 µM; Ki (VvelCSP1; read-out: Binding affinity class (by Ki)): > 10 µM; Ki (VvelCSP4; VvelCSP4, read-out: Binding affinity class (by Ki)): 5 to 10 µM
CCCCCCCCCCCCCCCCCCCCCCCCCCCCC [Nonacosane] | 215.85 | 197.03 | 181.17 | 168.33 | 152.52 | 138.03 | 127.11 | 120.08 | 20.4 | 212.97 | 196.97 | 179.08 | 164.16 | 151.46 | 136.04 | 129.53 | 125.16 | 15.1 |  |  | 
CCCCCCCCCCCCCCCCCCCCCCCCCCCC [Octacosane] | 200.77 | 192.40 | 162.06 | 146.64 | 135.22 | 131.33 | 127.20 | 124.62 |  | 227.35 | 213.99 | 194.19 | 182.58 | 174.55 | 162.14 | 156.02 | 154.11 |  | > 24 | > 18 | 

More lines, main results first:

Raw fluorescence intensity (VvelCSP1; VvelCSP1, chemical 0.5 μM) | Raw fluorescence intensity (VvelCSP1; VvelCSP1, chemical 1 μM) | Raw fluorescence intensity (VvelCSP1; VvelCSP1, chemical 2 μM) | Raw fluorescence intensity (VvelCSP1; VvelCSP1, chemical 4 μM) | Raw fluorescence intensity (VvelCSP1; VvelCSP1, chemical 6 μM) | Raw fluorescence intensity (VvelCSP1; VvelCSP1, chemical 8 μM) | Raw fluorescence intensity (VvelCSP1; VvelCSP1, chemical 12 μM) | Raw fluorescence intensity (VvelCSP1; VvelCSP1, chemical 16 μM) | IC50 (VvelCSP4; [1]) [µM] | Raw fluorescence intensity (VvelCSP4; VvelCSP4, chemical 0.5 μM) | Raw fluorescence intensity (VvelCSP4; VvelCSP4, chemical 1 μM) | Raw fluorescence intensity (VvelCSP4; VvelCSP4, chemical 2 μM) | Raw fluorescence intensity (VvelCSP4; VvelCSP4, chemical 4 μM) | Raw fluorescence intensity (VvelCSP4; VvelCSP4, chemical 6 μM) | Raw fluorescence intensity (VvelCSP4; VvelCSP4, chemical 8 μM) | Raw fluorescence intensity (VvelCSP4; VvelCSP4, chemical 12 μM) | Raw fluorescence intensity (VvelCSP4; VvelCSP4, chemical 16 μM) | Ki (VvelCSP4; [2]) [µM] | IC50 (VvelCSP4; [3]) [µM] | Ki (VvelCSP4; [4]) [µM] | SMILES | further results
246.77 | 231.89 | 197.76 | 171.56 | 161.14 | 158.53 | 154.82 | 153.17 | 3.68 | 205.93 | 179.89 | 159.86 | 127.80 | 108.85 | 102.51 | 95.75 | 91.32 | 2.73 |  |  | CCCCCCCCCCCCCCCCCCCCCC [Docosane] | 
246.85 | 234.09 | 206.27 | 199.36 | 183.72 | 175.07 | 172.10 | 170.22 |  | 192.14 | 182.38 | 164.23 | 154.96 | 139.00 | 133.35 | 128.24 | 125.62 |  | > 24 | > 18 | CCCCCCCCCCCCCCCCCCCC [Eicosane] | 
190.87 | 168.28 | 152.31 | 138.38 | 134.83 | 130.66 | 127.58 | 125.86 | 19.8 | 252.45 | 226.44 | 209.89 | 178.34 | 161.57 | 149.85 | 143.60 | 140.19 | 14.7 |  |  | CCCCCCCCCCCCCCCCCCCCC [Heneicosane] | 

Reference: publication PMC12652730, “The Chemoreceptive Molecular Mechanism Underlying CSP-Mediated Recognition of Seed Elaiosome from Stemona tuberosa by Hornets” (Genes, 2025)
